# Measured values from ChEMBL document CHEMBL4351009, “hERG optimizations of IMB1603, discovery of alternative benzothiazinones as new antitubercular agents” (Eur J Med Chem, 2019).
# Tests used:
# [1] = test system: Mycobacterium tuberculosis; assay: Antimycobacterial activity against multidrug resistance Mycobacterium tuberculosis 16883 clinical isolate assessed as reduction in bacterial cell viability incubated for 7 days by microplate alamar blue assay; type: functional; conditions: Mycobacterium tuberculosis, 16883, 168 h
# [2] = test system: Mycobacterium tuberculosis; assay: Antimycobacterial activity against multidrug resistance Mycobacterium tuberculosis 16995 clinical isolate assessed as reduction in bacterial cell viability incubated for 7 days by microplate alamar blue assay; type: functional; conditions: Mycobacterium tuberculosis, 16995, 168 h
Structure (SMILES),MIC [1] [µM],MIC [2] [µM]
O=c1nc(N2CC3CCC2CN3Cc2ccc(F)cc2)sc2c([N+](=O)[O-])cc(C(F)(F)F)cc12 (stereo not given),0.062,< 0.035
O=c1nc(N2CCC3(CCN(c4ccc(F)cc4)C3)CC2)sc2c([N+](=O)[O-])cc(C(F)(F)F)cc12,< 0.035,< 0.035
NNC(=O)c1ccncc1 [ISONIAZID],> 40,> 40
O=c1nc(N2CCN(CC3CCCCC3)CC2)sc2c([N+](=O)[O-])cc(C(F)(F)F)cc12 [MACOZINONE],< 0.035,< 0.035
CO[C@H]1/C=C/O[C@@]2(C)Oc3c(C)c(O)c4c(O)c(c(/C=N/N5CCN(C)CC5)c(O)c4c3C2=O)NC(=O)/C(C)=C\C=C\[C@H](C)[C@H](O)[C@@H](C)[C@@H](O)[C@@H](C)[C@H](OC(C)=O)[C@@H]1C [RIFAMPIN],> 40,> 40
